The conditions of series [1]: clinical trials, acute respiratory distress syndrome; cited from earlier work.
Series [2] can be described thus: in vivo study in male rats. The note with it: cited from earlier work.
For series [3] the following is noted: human, up to 120 minutes.
For series [4] the following is noted: plasma in vitro; cited from earlier work.

“Also recorded” adds a separate entry of the source.

For the compound “GSK2586881: recombinant human ACE2 for treatment of acute respiratory distress syndrome”, the tolerability result in series [1] is given as “well-tolerated”. Turning to “pGlu Arg Pro Arg Leu Ser His Lys Gly Pro Met Pro Phe”, the fragment found result in series [2] is “[Pyr^1]apelin-13(1–12); also recorded: [Pyr^1]apelin-13(1–10); also recorded: [Pyr^1]apelin-13(1–6)”. Further, the cleaved bond entry in series [3] was “Pro10-Met11, major, 120 minutes; also recorded: Ser6-His7, major, 120 minutes; also recorded: Leu5-Ser6, 120 minutes”. On to `CSCC[C@H](NC(=O)[C@@H]1CCCN1C(=O)CNC(=O)[C@H](CCCCN)NC(=O)[C@H](Cc1cnc[nH]1)NC(=O)[C@H](CO)NC(=O)[C@H](CC(C)C)NC(=O)[C@H](CCCNC(=N)N)NC(=O)[C@@H]1CCCN1C(=O)[C@H](CCCNC(=N)N)NC(=O)[C@@H]1CCC(=O)N1)C(=O)N1CCC[C@H]1C(=O)N[C@@H](Cc1ccccc1)C(=O)O` [[Pyr^1]apelin-13], for which the “degradation in rat and mouse plasma compared to dog, monkey and human plasma” value in series [4] was “more rapid degradation”.

The values are drawn from publication PMC6934825 (Scientific Reports, 2019).
